# Laboratory results from US20110224079A1, “SPIROHETEROCYCLIC N-OXYAMIDES AS PESTICIDES” (SYNGENTA CROP PROTECTION LLC, priority 2008, published 2011).
# What was measured:
# [1] = test system: Myzus persicae (green peach aphid); test: Example B17: activity against Myzus persicae on sprayed pepper plants (feeding/residual contact); type: in vivo; details: 144 h, infested pepper plants sprayed, 6 days
# [2] = test system: Myzus persicae (green peach aphid); test: Example B2: activity against Myzus persicae, pea seedling roots in test solution (systemic/feeding, curative); details: 144 h, read-out: activity (mortality)
# [3] = test system: Tetranychus urticae (two-spotted spider mite); test: Example B4: activity against Tetranychus urticae, sprayed bean leaf discs (feeding/residual contact, preventive); details: foliar, 192 h, read-out: activity (egg, larval and adult mortality)
# [4] = test system: Myzus persicae (green peach aphid); test: Example B1: activity against Myzus persicae, sprayed sunflower leaf discs (feeding/residual contact, preventive); details: foliar, 144 h, read-out: activity (mortality)
# [5] = test system: Myzus persicae (green peach aphid); test: Example B13: drench activity against Myzus persicae, pea seedlings in field soil; details: 168 h, read-out: drench activity (mortality)
# [6] = test system: Nilaparvata lugens (brown rice planthopper); test: Example B8: activity against Nilaparvata lugens, sprayed rice seedlings (larvicide, feeding/contact); details: in Oryza sativa, read-out: activity (mortality, growth regulation, effects on F1 generation)
# [7] = test system: Aphis Craccivora (cowpea aphid); test: Example B11: translaminar activity against Aphis craccivora on French bean leaves; type: in vivo; details: 120 h, upper leaf side painted, aphids on lower side, 5 days
# Experimental: Translaminar Activity Against Aphis Craccivora (Cowpea Aphid)
# French bean leaves (Phaseolus vulgaris) are infested with about 20 mixed age individuals on the lower leaf side using clip cages. 1 day after the infestation, the upper side of the leaves is treated with the test solution by painting. 5 days later, samples are checked for mortality.
Compound,mortality at 200 ppm [1] [%],mortality at 400 ppm [2] [%],mortality at 400 ppm [3] [%],mortality at 400 ppm [4] [%],mortality at 25 ppm [5] [%],mortality at 400 ppm [6] [%],mortality at 400 ppm [7] [%]
CCOC(=O)OC1=C(c2c(C)cc(C)cc2C)C(=O)N(OCc2ccoc2)C12CCN(OC)CC2 [P1.77],≥ 80,> 80,> 80,,,,
CON1CCC2(CC1)C(O)=C(c1cc(C)c(Cl)cc1C)C(=O)N2OC [P2.31],,,> 80,> 80,,,
CCOC(=O)OC1=C(c2c(C)cc(Br)cc2C)C(=O)N(OC)C12CCN(OC)CC2 [P1.88],≥ 80,> 80,> 80,> 80,> 80,> 80,
CON1CCC2(CC1)C(O)=C(c1c(C)cc(C)cc1C)C(=O)N2OCC1CCC1 [P2.97],≥ 80,> 80,> 80,> 80,,,
CCOC(=O)OC1=C(c2cc(-c3ccc(Cl)cc3)ccc2C)C(=O)N(OCOC)C12CCN(OC)CC2 [P1.22],,,> 80,> 80,,,
CON1CCC2(CC1)C(O)=C(c1c(C)cc(Br)cc1C)C(=O)N2OC [P2.79],≥ 80,> 80,> 80,,,,
CON1CCC2(CC1)C(O)=C(c1c(C)cc(C)cc1C)C(=O)N2OCC1CCCC1 [P2.85],≥ 80,> 80,> 80,> 80,,,
CON1CCC2(CC1)C(O)=C(c1c(C)cc(C)cc1C)C(=O)N2OC1CCCCO1 (centres unmarked) [P2.65],≥ 80,> 80,> 80,> 80,,,
CCOC(=O)OC1=C(c2c(C)cc(C)cc2C)C(=O)N(OC(=O)C2CC2)C12CCN(OC)CC2 [P1.16],,> 80,> 80,,,,
CON1CCC2(CC1)C(O)=C(c1cc(Br)c(C)cc1C)C(=O)N2OC1CCCO1 (centres unmarked) [P2.76],,,> 80,,,,
CON1CCC2(CC1)C(O)=C(c1c(C)cc(C)cc1C)C(=O)N2OCC1CCCOC1 (centres unmarked) [P2.100],,> 80,> 80,> 80,,,
"COCON1C(=O)C(c2cc(C)ccc2C)=C(OC(=O)C2CC2)C12CCN(OC)CC2 [P1.4, Cyclopropanecarboxylic acid 3-(2,5-dimethyl-phenyl)-8-methoxy-1-methoxymethoxy-2-oxo-1,8-diaza-spiro[4.5]dec-3-en-4-yl ester]",,> 80,> 80,> 80,> 80,> 80,> 80
CON1CCC2(CC1)C(O)=C(c1c(F)ccc(C)c1Cl)C(=O)N2OC [P2.58],,> 80,> 80,,,,
CCOC(=O)OC1=C(c2cc(C)c(C)cc2C)C(=O)N(OC2CCCO2)C12CCN(OC)CC2 (centres unmarked) [P1.54],,,> 80,> 80,,,
C#CCON1C(=O)C(c2c(C)cc(C)cc2C)=C(OC(=O)OCC)C12CCN(OC)CC2 [P1.29],,> 80,> 80,> 80,,,
CCOC(=O)OC1=C(c2cc(Br)c(C)cc2C)C(=O)N(OCOC)C12CCN(OC)CC2 [P1.87],,,> 80,,,,
COCCON1C(=O)C(c2cc(C)ccc2C)=C(O)C12CCN(OC)CC2 [P2.3],≥ 80,> 80,,> 80,> 80,> 80,> 80
CCOC(=O)OC1=C(c2c(C)cc(Br)cc2C)C(=O)N(OC2CCCO2)C12CCN(OC)CC2 (centres unmarked) [P1.63],≥ 80,> 80,,> 80,,,
CON1CCC2(CC1)C(O)=C(c1c(C)cc(C)cc1C)C(=O)N2OC1CCCC1 [P2.25],,> 80,> 80,> 80,,> 80,
CCOC(=O)OC1=C(c2c(C)cc(C)cc2C)C(=O)N(OCC2CCSCC2)C12CCN(OC)CC2 [P1.80],,,> 80,,,,
CCOC(=O)OC1=C(c2c(C)cc(C)cc2C)C(=O)N(OCC2(CC)COC2)C12CCN(OC)CC2 [P1.84],,> 80,> 80,,,,
COCON1C(=O)C(c2cc(-c3ccc(Cl)cc3)ccc2C)=C(O)C12CCN(OC)CC2 [P2.17],,,> 80,> 80,,,
CCC1(CON2C(=O)C(c3c(C)cc(C)cc3C)=C(O)C23CCN(OC)CC3)COC1 [P2.86],≥ 80,,> 80,> 80,,,
CCOC(=O)OC1=C(c2c(C)cc(C)cc2C)C(=O)N(OC2CCCC2)C12CCN(OC)CC2 [P1.28],,,> 80,,,> 80,
